In assay [1] the test system is proteasome genes. To be noted: Burington et al., 2009; cited from earlier work.
Assay [2] has as its system proteasome genes. As to the kind of experiment: Proteasome gene expression changes after short-term exposure (test-dosing) to bortezomib, dexamethasone, thalidomide, melphalan. The format is in vivo, human. The conditions noted are these: for proteasome gene expression change after short-term exposure: test-dosing in myeloma patients. From the text:
In earlier studies, pharmacogenomics was used to identify genes altered by short-term exposure of therapy-naïve cases to thalidomide and dexamethasone. Little to no overlap was found in the genes altered by these agents with those altered by bortezomib.

Data on three compounds can be found in patent publication US20120015906A1, “USES OF BORTEZOMIB IN PREDICTING SURVIVAL IN MULTIPLE MYELOMA PATIENTS” (priority 2009, published 2012).

Structures are written as SMILES. Entries after “also recorded” stand apart in the source; their conditions may differ.

Consider `Nc1cccc2c1CN(C1CCC(=O)NC1=O)C2=O` (stereo not drawn) [lenalidomide], for which the “hyperactivation of proteasome genes after short-term drug” value in assay [1] is on record as “not associated with hyperactivation of proteasome genes”.
`N[C@@H](Cc1ccc(N(CCCl)CCCl)cc1)C(=O)O` [melphalan]: the “changes for some proteasome genes (e.g. PSMB3 and PSMD14) compared to the changes after bortezomib” value in assay [2] (FIG. 10, short-term exposure) is recorded as “reversed”. Also, the “change of PSMB2 and PSMD14 compared to the changes after bortezomib” value in assay [2] (melphalan test-dosing, Total Therapy 4) is “inversely changed”. In assay [2], the “proteasome gene expression change after short-term exposure” value is given as “most proteasome genes did not change”.
Regarding `O=C1CCC(N2C(=O)c3ccccc3C2=O)C(=O)N1` (stereo not drawn) [thalidomide], the “proteasome gene expression change after short-term exposure” value in assay [2] is given as “complete lack of activation; also recorded: did not change”. The “hyperactivation of proteasome genes after short-term drug” value in assay [1] was “not associated with hyperactivation of proteasome genes”.
